Data: patent US20200223839A1, “FLUORO-CONTAINING COMPOUNDS, USE AND PREPARATION THEREOF” (JIANGSU YINGKEBEITA YIYAOKEJI CO. LTD, priority 2017, published 2020)

Experiments:
A549 = assay: Cell culture and cytotoxicity assay (CTG), A549; assay type: cell-based; details: Homo sapiens, A549, exposure 72 hours
Procedure: (§1) The assayed compounds each was dissolved in DMSO with a final concentration of 10 mM or 40 mM and stored at −20° C. Tumor cell lines A549 (7,000 cells/well), BT474 (12,000 cells/well), MDA-MB-468 (12,000 cells/well), and HCC1937 (6,000 cells/well) were seeded on 96-well plates. And the cells were pre-incubated at 37° C./5% CO2 for 24 hours. The cells were exposed to different concentrations of the assay compounds (from 400 μM to 782 nM, from 200 μM to 391 nM, from 100 μM to 196 nM, and from 50 μM to 98 nM) for the following time:
(§2) After incubation, 100 μL from each well was discarded and CTG base (Proega, G7571, 50 μL) was added and the mixture was agitated for 2 minutes. The mixtures were stored in a dark room for 10 minutes and the viability was analyzed with Multiskan microplate reader.

BT474 = assay: Cell culture and cytotoxicity assay (CTG), BT474; assay type: cell-based; details: Homo sapiens, BT-474, BT474, exposure 96 hours
Procedure: as §1, §2

HCC1937 = assay: Cell culture and cytotoxicity assay (CTG), HCC1937; assay type: cell-based; details: Homo sapiens, HCC1937, exposure 72 hours
Procedure: as §1, §2

MDA-MB-468 = assay: Cytotoxicity assay by the CTG method, MDA-MB-468; assay type: cell-based; details: Homo sapiens, MDA-MB-468, Breast cancer, 72 h
Procedure: (§3) The corresponding cells were harvested from flask into cell culture medium and the cell number were counted. The cells were diluted with culture medium to the desired density and 40 μL of cell suspension was added into each well of 384-well cell culture plate as designated. The plates were covered with lid and placed in room temperature for 30 minutes without shaking and then were transferred plates into 37° C. 5% CO2 incubator overnight for cell attachment.
(§4) Compound preparation and treatment: Test compounds were received or dissolved at 30 mM stock solution and control compound Staurosporine was stored as 10 mM and 1 mM concentration. 45 uL of stock solution was transferred to a 384 pp-plate. 3 fold, 10-point dilution were performed via transferring 15 uL compound into 30 μL DMSO by using TECAN (EVO200) liquid handler. The plates were spun at room temperature at 1,000 RPM for 1 minute and shaken at a plate shaker for 2 minutes. […]
(§5) The plate from incubators were placed and equilibrated at room temperature for 15 minutes. […] 40 μL of CellTiter-Glo reagent were transferred into each well to be detected (at 1:1 to culture medium). Then the plates were placed at room temperature for 30 min followed by reading on EnSpire.
(§6) The inhibition activity was calculated following the formula below: […]
(§7) The IC50 were calculated by fitting the Curve using Xlfit (v5.3.1.3): […]

T-47D = assay: Cytotoxicity assay by the CTG method, T-47D; assay type: cell-based; details: Homo sapiens, T47D, Breast cancer, 72 h
Procedure: as §3, §4, §5, §6, §7

COLO205 = assay: Cytotoxicity assay by the CTG method, COLO205; assay type: cell-based; details: Homo sapiens, COLO 205, COLO205, Colon cancer, 72 h
Procedure: as §3, §4, §5, §6, §7

HCT116 = assay: Cytotoxicity assay by the CTG method, HCT116; assay type: cell-based; details: Homo sapiens, HCT-116, HCT116, Colon cancer, 72 h
Procedure: as §3, §4, §5, §6, §7

LoVo = assay: Cytotoxicity assay by the CTG method, LoVo; assay type: cell-based; details: Homo sapiens, Colon cancer, 72 h
Procedure: as §3, §4, §5, §6, §7

CaKi-1 = assay: Cytotoxicity assay by the CTG method, CaKi-1; assay type: cell-based; details: Homo sapiens, CaKi-1, Kidney cancer, 72 h
Procedure: as §3, §4, §5, §6, §7

786-O = assay: Cytotoxicity assay by the CTG method, 786-O; assay type: cell-based; details: Homo sapiens, 786-0, Kidney cancer, 72 h
Procedure: as §3, §4, §5, §6, §7

HL-60 = assay: Cytotoxicity assay by the CTG method, HL-60; assay type: cell-based; details: Homo sapiens, HL-60, Leukemia, 72 h
Procedure: as §3, §4, §5, §6, §7

Hep3B = assay: Cytotoxicity assay by the CTG method, Hep3B; assay type: cell-based; details: Homo sapiens, Liver cancer, 72 h
Procedure: as §3, §4, §5, §6, §7

PLC/PRF/5 = assay: Cytotoxicity assay by the CTG method, PLC/PRF/5; assay type: cell-based; details: Homo sapiens, PLC/PRF/5, Liver cancer, 72 h
Procedure: as §3, §4, §5, §6, §7

Calu-6 = assay: Cytotoxicity assay by the CTG method, Calu-6; assay type: cell-based; details: Homo sapiens, Calu-6, Lung cancer, 72 h
Procedure: as §3, §4, §5, §6, §7

NCI-H446 = assay: Cytotoxicity assay by the CTG method, NCI-H446; assay type: cell-based; details: Homo sapiens, NCI-H446, Lung cancer, 72 h
Procedure: as §3, §4, §5, §6, §7

U937 = assay: Cytotoxicity assay by the CTG method, U937; assay type: cell-based; details: Homo sapiens, U-937, U937, Lymphoma, 72 h
Procedure: as §3, §4, §5, §6, §7

WM-266-4 = assay: Cytotoxicity assay by the CTG method, WM-266-4; assay type: cell-based; details: Homo sapiens, WM-266-4, Melanoma, 72 h
Procedure: as §3, §4, §5, §6, §7

A2058 = assay: Cytotoxicity assay by the CTG method, A2058; assay type: cell-based; details: Homo sapiens, A2058, Melanoma, 72 h
Procedure: as §3, §4, §5, §6, §7

SK-OV-3 = assay: Cytotoxicity assay by the CTG method, SK-OV-3; assay type: cell-based; details: Homo sapiens, SK-OV-3, Ovarian cancer, 72 h
Procedure: as §3, §4, §5, §6, §7

[1] = In vivo xenograft study, MDA-MB-468, mice weights; details: MDA-MB-468 xenograft in BALB/c-nu mice, FIGS. 3 and 5
Procedure: MDA-MB-468 cells (human breast cancer) in its log growth phase were implanted in BALB/c-nu mice. When the tumor volume was approximately 50-150 mm^3, the mice were randomized into four groups, each include 8 mice. The four groups were treated with vehicle, Ref. 1, 4f, and Ref. 2, respectively, and the tumor sizes were measured two to three times each week and the mice were also weighted.

[2] = In vivo mouse model, MDA-MB-453, mice weights; details: MDA-MB-453 mouse model
Text: MDA-MB-453 cells (human breast cancer) were also studied in a mouse model. […] FIG. 7.

[3] = In vivo mouse model, Hep3B, mice weights
Text: Hep3B cells (human liver cancer) were also studied in a mouse model. […] FIG. 9.

weight changes of mice [1]: no significant weight changes
weight changes ([2]; FIG. 7, 50 mg/Kg): no difference in weight changes
weight changes ([2]; FIG. 7, 100 mg/Kg): no difference in weight changes
weight changes ([3]; FIG. 9, 50 mg/Kg): no difference in weight changes
weight changes ([3]; FIG. 9, 100 mg/Kg): no difference in weight changes
SMILES: Cc1ccc(S(=O)(=O)Nc2nc3ccccc3nc2Nc2ccc3nsnc3c2)cc1F [Compound 4f, N-[3-(benzo[1,2,5]thiadiazol-5-ylamino)-quinoxalin-2-yl]-3-fluoro-4-methyl-benzenesulfonamide]
IC50 (A549): 25000 to 50000 nM
IC50 (BT474): 12500 to 25000 nM
IC50 (HCC1937): 37900 nM
IC50 (MDA-MB-468): 2.49 µM
IC50 (T-47D): 5.74 µM
IC50 (COLO205): 2.99 µM
IC50 (HCT116): 5.44 µM
IC50 (LoVo): 21.7 µM
IC50 (CaKi-1): 13 µM
IC50 (786-O): 5.74 µM
IC50 (HL-60): 7.61 µM
IC50 (Hep3B): 3.97 µM
IC50 (PLC/PRF/5): 3.27 µM
IC50 (Calu-6): 4.89 µM
IC50 (NCI-H446): 3.92 µM
IC50 (U937): 3.68 µM
IC50 (WM-266-4): 9.1 µM
IC50 (A2058): 7.7 µM
IC50 (SK-OV-3): 9.37 µM
